Laboratory results published in US7001983B1, “Antipathogenic synthetic peptides and compositions comprising them” (priority 1997, dated 2006).
Square brackets hold non-standard residues; d marks the D form. Peptide text beside a SMILES is read from it.

Experiments:
Type in all cases: cell-based
Bacillus megaterium Bm11 = conditions: 100% inhibition of growth after 18–20 h
[1] = tested on: human red blood cells (hRBC); experiment: Hemolysis of human red blood cells; conditions: hRBC, 30 min at 37° C.
Protocol: (ix) Hemolysis of human red blood cells. The peptides were tested for their hemolytic activities against human red blood cells (hRBC). Fresh hRBC with EDTA were rinsed 3 times with PBS (35 mM phosphate buffer/0.15 M NaCl, pH 7.3) by centrifugation for 10 min at 800 g and resuspended in PBS. Peptides dissolved in PBS were then added to 50 μL of a solution of the stock hRBC in PBS to reach a final volume of 100 μL (final erythrocyte concentration, 5% v/v). The resulting suspension was incubated under agitation for 30 min at 37° C. The samples were then centrifuged at 800 g for 10 min. Release of hemoglobin was monitored by measuring the absorbance of the supernatant at 540 nm. Controls for zero hemolysis (blank) and 100% hemolysis consisted of hRBC suspended in PBS and Triton 1%, respectively.

Escherichia coli D21 = conditions: 100% inhibition of growth after 18–20 h

CC[C@H](C)[C@H](NC(=O)[C@H](CCCCN)NC(=O)[C@@H]1CCCN1C(=O)[C@@H](NC(=O)[C@H](CC(C)C)NC(=O)[C@H](C)NC(=O)[C@H](Cc1ccccc1)NC(=O)[C@H](Cc1ccccc1)NC(=O)CN)[C@@H](C)CC)C(=O)N[C@H](C(=O)N[C@@H](CO)C(=O)N[C@@H](CO)C(=O)N1CCC[C@@H]1C(=O)N[C@@H](CC(C)C)C(=O)N[C@@H](Cc1ccccc1)C(=O)N[C@@H](CCCCN)C(=O)N[C@H](C(=O)N[C@@H](CC(C)C)C(=O)N[C@@H](CC(C)C)C(=O)N[C@@H](CO)C(=O)N[C@@H](C)C(=O)N[C@H](C(=O)NCC(=O)N[C@@H](CO)C(=O)N[C@@H](C)C(=O)N[C@@H](CC(C)C)C(=O)N[C@@H](CO)C(=O)N[C@@H](CO)C(=O)N[C@@H](CO)C(=O)NCC(=O)NCC(=O)N[C@@H](CCC(N)=O)C(=O)N[C@@H](CCC(=O)NCCN)C(=O)NCCN)C(C)C)[C@@H](C)O)[C@@H](C)CC [Peptide 9, [D]P^13-TApar]
Minimal Inhibitory Concentration B. megaterium (Bm11) (Bacillus megaterium Bm11): 1.5 µM
% hemolysis at 50 μM peptide [1]: 83%
Minimal Inhibitory Concentration E. coli (D21) (Escherichia coli D21): 3 µM

CC[C@H](C)[C@H](NC(=O)[C@H](CCCCN)NC(=O)[C@@H]1CCCN1C(=O)[C@@H](NC(=O)[C@@H](CC(C)C)NC(=O)[C@H](C)NC(=O)[C@H](Cc1ccccc1)NC(=O)[C@H](Cc1ccccc1)NC(=O)CN)[C@@H](C)CC)C(=O)N[C@H](C(=O)N[C@@H](CO)C(=O)N[C@@H](CO)C(=O)N1CCC[C@H]1C(=O)N[C@@H](CC(C)C)C(=O)N[C@@H](Cc1ccccc1)C(=O)N[C@@H](CCCCN)C(=O)N[C@H](C(=O)N[C@@H](CC(C)C)C(=O)N[C@H](CC(C)C)C(=O)N[C@@H](CO)C(=O)N[C@@H](C)C(=O)N[C@H](C(=O)NCC(=O)N[C@@H](CO)C(=O)N[C@@H](C)C(=O)N[C@@H](CC(C)C)C(=O)N[C@@H](CO)C(=O)N[C@@H](CO)C(=O)N[C@@H](CO)C(=O)NCC(=O)NCC(=O)N[C@@H](CCC(N)=O)C(=O)N[C@@H](CCC(=O)NCCN)C(=O)NCCN)C(C)C)[C@@H](C)O)[C@@H](C)CC [Peptide 10, [D]L^5L^19-TApar]
Minimal Inhibitory Concentration B. megaterium (Bm11) (Bacillus megaterium Bm11): 1.3 µM
% hemolysis at 50 μM peptide [1]: 56%
Minimal Inhibitory Concentration E. coli (D21) (Escherichia coli D21): 3 µM

CC[C@H](C)[C@H](NC(=O)[C@H](CCCCN)NC(=O)[C@H]1CCCN1C(=O)[C@@H](NC(=O)[C@H](CC(C)C)NC(=O)[C@H](C)NC(=O)[C@H](Cc1ccccc1)NC(=O)[C@H](Cc1ccccc1)NC(=O)CN)[C@@H](C)CC)C(=O)N[C@H](C(=O)N[C@@H](CO)C(=O)N[C@@H](CO)C(=O)N1CCC[C@H]1C(=O)N[C@@H](CC(C)C)C(=O)N[C@@H](Cc1ccccc1)C(=O)N[C@@H](CCCCN)C(=O)N[C@H](C(=O)N[C@@H](CC(C)C)C(=O)N[C@H](CC(C)C)C(=O)N[C@@H](CO)C(=O)N[C@@H](C)C(=O)N[C@H](C(=O)NCC(=O)N[C@@H](CO)C(=O)N[C@@H](C)C(=O)N[C@@H](CC(C)C)C(=O)N[C@@H](CO)C(=O)N[C@@H](CO)C(=O)N[C@@H](CO)C(=O)NCC(=O)NCC(=O)N[C@@H](CCC(N)=O)C(=O)N[C@@H](CCC(=O)NCCN)C(=O)NCCN)C(C)C)[C@@H](C)O)[C@@H](C)CC [Peptide 11, [D]P^7L^19-TApar]
Minimal Inhibitory Concentration B. megaterium (Bm11) (Bacillus megaterium Bm11): 1.5 µM
% hemolysis at 50 μM peptide [1]: 82%
Minimal Inhibitory Concentration E. coli (D21) (Escherichia coli D21): 3 µM

CC[C@H](C)[C@H](NC(=O)[C@H](CCCCN)NC(=O)[C@H]1CCCN1C(=O)[C@@H](NC(=O)[C@H](CC(C)C)NC(=O)[C@H](C)NC(=O)[C@H](Cc1ccccc1)NC(=O)[C@H](Cc1ccccc1)NC(=O)CN)[C@@H](C)CC)C(=O)N[C@H](C(=O)N[C@@H](CO)C(=O)N[C@@H](CO)C(=O)N1CCC[C@H]1C(=O)N[C@@H](CC(C)C)C(=O)N[C@@H](Cc1ccccc1)C(=O)N[C@@H](CCCCN)C(=O)N[C@H](C(=O)N[C@@H](CC(C)C)C(=O)N[C@@H](CC(C)C)C(=O)N[C@@H](CO)C(=O)N[C@@H](C)C(=O)N[C@H](C(=O)NCCN)C(C)C)[C@@H](C)O)[C@@H](C)CC [Peptide 17, [D]P^7[1-22]-TApar]
Minimal Inhibitory Concentration B. megaterium (Bm11) (Bacillus megaterium Bm11): 1 µM
% hemolysis at 50 μM peptide [1]: 17%
Minimal Inhibitory Concentration E. coli (D21) (Escherichia coli D21): 10 µM

CC(C)C[C@H](NC(=O)[C@H](CC(C)C)NC(=O)[C@@H](CC(C)C)NC(=O)[C@H](N)CCCCN)C(=O)N[C@H](CCCCN)C(=O)N[C@H](CC(C)C)C(=O)N[C@H](CC(C)C)C(=O)N[C@@H](CC(C)C)C(=O)N[C@H](CCCCN)C(=O)N[C@@H](CC(C)C)C(=O)N[C@H](CC(C)C)C(=O)N[C@H](CCCCN)C(N)=O [Peptide 26, [D]-K^1,5,9,12L^2,6,7,11-K4L8] (H-[dK][dL]LL[dK][dL][dL]L[dK]L[dL][dK]-NH2)
Minimal Inhibitory Concentration B. megaterium (Bm11) (Bacillus megaterium Bm11): 0.5 µM
% hemolysis at 100 μM [1]: 0%
Minimal Inhibitory Concentration E. coli (D21) (Escherichia coli D21): 4 µM

CC(C)C[C@H](NC(=O)[C@H](CC(C)C)NC(=O)[C@@H](CC(C)C)NC(=O)[C@H](N)CCCCN)C(=O)N[C@H](CCCCN)C(=O)N[C@H](CC(C)C)C(=O)N[C@H](CCCCN)C(=O)N[C@@H](CC(C)C)C(=O)N[C@H](CCCCN)C(=O)N[C@@H](CC(C)C)C(=O)N[C@H](CC(C)C)C(=O)N[C@H](CCCCN)C(N)=O [Peptide 27, [D]-K^1,5,7,9,12L^2,6,11-K5L7] (H-[dK][dL]LL[dK][dL][dK]L[dK]L[dL][dK]-NH2)
Minimal Inhibitory Concentration B. megaterium (Bm11) (Bacillus megaterium Bm11): 0.2 µM
% hemolysis at 100 μM [1]: 0%
Minimal Inhibitory Concentration E. coli (D21) (Escherichia coli D21): 7 µM

CC(C)C[C@H](NC(=O)[C@@H](CC(C)C)NC(=O)[C@H](CC(C)C)NC(=O)[C@@H](CC(C)C)NC(=O)[C@@H](N)CCCCN)C(=O)N[C@@H](CCCCN)C(=O)O [Peptide 28, [D]-L^2,4-K2L4] (H-K[dL]L[dL]LK-OH)
Minimal Inhibitory Concentration B. megaterium (Bm11) (Bacillus megaterium Bm11): 50 µM
% hemolysis at 100 μM [1]: 0%
Minimal Inhibitory Concentration E. coli (D21) (Escherichia coli D21): 200 µM

CC(C)C[C@H](NC(=O)[C@@H](CC(C)C)NC(=O)[C@H](CCCCN)NC(=O)[C@@H](CC(C)C)NC(=O)[C@H](CC(C)C)NC(=O)[C@@H](CC(C)C)NC(=O)[C@@H](N)CCCCN)C(=O)N[C@@H](CCCCN)C(=O)O [Peptide 29, [D]-L^2,4,6-K3L5] (H-K[dL]L[dL]K[dL]LK-OH)
Minimal Inhibitory Concentration B. megaterium (Bm11) (Bacillus megaterium Bm11): 3 µM
% hemolysis at 100 μM [1]: 0%
Minimal Inhibitory Concentration E. coli (D21) (Escherichia coli D21): 3 µM

C[C@H](NC(=O)[C@H](C)NC(=O)[C@H](CCCCN)NC(=O)[C@@H](C)NC(=O)[C@@H](C)NC(=O)[C@H](C)NC(=O)[C@@H](N)CCCCN)C(=O)N[C@H](C)C(=O)N[C@@H](CCCCN)C(=O)N[C@H](C)C(=O)N[C@@H](C)C(=O)N[C@@H](CCCCN)C(N)=O [Peptide 33, [D]-A^3,4,8,10-K4A8] (H-KA[dA][dA]KAA[dA]K[dA]AK-NH2)
Minimal Inhibitory Concentration B. megaterium (Bm11) (Bacillus megaterium Bm11): 1 µM
% hemolysis at 100 μM [1]: 0%
Minimal Inhibitory Concentration E. coli (D21) (Escherichia coli D21): 12 µM

CC(C)[C@H](NC(=O)[C@H](CCCCN)NC(=O)[C@H](NC(=O)[C@H](NC(=O)[C@@H](NC(=O)[C@@H](N)CCCCN)C(C)C)C(C)C)C(C)C)C(=O)N[C@H](C(=O)N[C@@H](C(=O)N[C@@H](CCCCN)C(=O)N[C@@H](C(=O)N[C@H](C(=O)N[C@@H](CCCCN)C(N)=O)C(C)C)C(C)C)C(C)C)C(C)C [Peptide 34, [D]-V^3,4,8,10-K4V8] (H-KV[dV][dV]KVV[dV]K[dV]VK-NH2)
Minimal Inhibitory Concentration B. megaterium (Bm11) (Bacillus megaterium Bm11): 0.8 µM
% hemolysis at 100 μM [1]: 0%
Minimal Inhibitory Concentration E. coli (D21) (Escherichia coli D21): 3.5 µM

CC[C@H](C)[C@@H]1NC(=O)[C@H](CCCCN)NC(=O)[C@H]2CCCN2C(=O)[C@H]([C@@H](C)CC)NC(=O)[C@H](CC(C)C)NC(=O)[C@H](C)NC(=O)[C@H](Cc2ccccc2)NC(=O)[C@H](Cc2ccccc2)NC(=O)CNC(=O)[C@H](CCCCN)NC(=O)[C@@H](N)CSSC[C@@H](C(=O)O)NC(=O)[C@H](C(C)C)NC(=O)[C@H](C)NC(=O)[C@H](CO)NC(=O)[C@@H](CC(C)C)NC(=O)[C@@H](CC(C)C)NC(=O)[C@H]([C@@H](C)O)NC(=O)[C@H](CCCCN)NC(=O)[C@H](Cc2ccccc2)NC(=O)[C@H](CC(C)C)NC(=O)[C@@H]2CCCN2C(=O)[C@H](CO)NC(=O)[C@H](CO)NC(=O)[C@H]([C@@H](C)CC)NC1=O [Peptide 86, Cyclic K^1[D]P^7L^18L^19[1-22]-par]
Minimal Inhibitory Concentration B. megaterium (Bm11) (Bacillus megaterium Bm11): 10 µM
% hemolysis at 100 μM [1]: 0%
Minimal Inhibitory Concentration E. coli (D21) (Escherichia coli D21): 30 µM

CC[C@H](C)[C@@H]1NC(=O)[C@H](CCCCN)NC(=O)[C@H]2CCCN2C(=O)[C@H]([C@@H](C)CC)NC(=O)[C@H](CC(C)C)NC(=O)[C@H](C)NC(=O)[C@H](Cc2ccccc2)NC(=O)[C@H](Cc2ccccc2)NC(=O)CNC(=O)[C@H](CCCCN)NC(=O)[C@H](CCCCN)NC(=O)[C@@H](N)CSSC[C@@H](C(=O)O)NC(=O)[C@H](C(C)C)NC(=O)[C@H](C)NC(=O)[C@H](CO)NC(=O)[C@@H](CC(C)C)NC(=O)[C@@H](CC(C)C)NC(=O)[C@H]([C@@H](C)O)NC(=O)[C@H](CCCCN)NC(=O)[C@H](Cc2ccccc2)NC(=O)[C@H](CC(C)C)NC(=O)[C@@H]2CCCN2C(=O)[C@H](CO)NC(=O)[C@H](CO)NC(=O)[C@H]([C@@H](C)CC)NC1=O [Peptide 87, Cyclic K^1K^2[D]P^7L^18L^19[1-22]-par]
Minimal Inhibitory Concentration B. megaterium (Bm11) (Bacillus megaterium Bm11): 6 µM
% hemolysis at 100 μM [1]: 0%
Minimal Inhibitory Concentration E. coli (D21) (Escherichia coli D21): 15 µM
